{
  "source": "ChEMBL document CHEMBL6103653",
  "about": "“Alstolarsines A-E, Indoline Alkaloids with Two Different Carbon Skeletons from Alstonia scholaris” (J Nat Prod, 2025)",
  "key": {"[1]": {"organism": "Homo sapiens", "assay": "Inhibition of DRAK2 autophosphorylation (unknown origin) at 20 microg/ml by ADP-Glo assay relative to control", "settings": "dose 20.0 µg/ml"}, "[2]": {"target": "T1, ATP-citrate synthase (Homo sapiens) (UniProt P53396)", "T1 sequence (whole entry)": "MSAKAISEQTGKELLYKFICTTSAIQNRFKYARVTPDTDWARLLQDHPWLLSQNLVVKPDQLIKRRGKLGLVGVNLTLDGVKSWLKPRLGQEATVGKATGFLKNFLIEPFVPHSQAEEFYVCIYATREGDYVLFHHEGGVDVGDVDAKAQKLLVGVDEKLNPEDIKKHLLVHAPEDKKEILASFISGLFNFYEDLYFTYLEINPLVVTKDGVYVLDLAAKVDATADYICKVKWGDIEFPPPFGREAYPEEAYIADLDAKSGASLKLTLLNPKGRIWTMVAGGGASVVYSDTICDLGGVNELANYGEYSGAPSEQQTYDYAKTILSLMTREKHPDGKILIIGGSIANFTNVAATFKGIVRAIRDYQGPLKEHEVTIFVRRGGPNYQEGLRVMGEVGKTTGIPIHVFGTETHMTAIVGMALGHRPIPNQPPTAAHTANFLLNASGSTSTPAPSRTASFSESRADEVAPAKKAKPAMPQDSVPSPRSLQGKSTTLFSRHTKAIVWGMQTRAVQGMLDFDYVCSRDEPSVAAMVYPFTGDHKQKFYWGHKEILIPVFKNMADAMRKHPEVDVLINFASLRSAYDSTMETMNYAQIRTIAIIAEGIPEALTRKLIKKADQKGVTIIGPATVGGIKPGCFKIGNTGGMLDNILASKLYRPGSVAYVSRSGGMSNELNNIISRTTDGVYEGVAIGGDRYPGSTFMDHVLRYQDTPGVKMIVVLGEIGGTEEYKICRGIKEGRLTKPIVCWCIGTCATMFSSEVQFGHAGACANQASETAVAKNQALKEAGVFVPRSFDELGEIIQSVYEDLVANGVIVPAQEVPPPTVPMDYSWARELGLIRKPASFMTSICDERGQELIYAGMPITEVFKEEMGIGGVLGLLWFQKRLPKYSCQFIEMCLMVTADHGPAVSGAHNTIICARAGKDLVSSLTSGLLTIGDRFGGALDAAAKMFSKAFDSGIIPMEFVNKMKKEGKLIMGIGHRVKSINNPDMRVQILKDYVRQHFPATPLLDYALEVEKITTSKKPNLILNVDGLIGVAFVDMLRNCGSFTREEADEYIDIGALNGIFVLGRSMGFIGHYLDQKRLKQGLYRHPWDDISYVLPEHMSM", "assay": "Inhibition of ATP citrate lyase (unknown origin) at 20 microg/ml by ADP-Glo assay relative to control", "settings": "dose 20.0 µg/ml"}},
  "data": [
    {"smiles": "C/C=C1/C[N@@+]2(C)CC[C@@]34c5ccccc5N[C@]32C(=O)[C@H]2[C@@H]1[C@]4(C(=O)[O-])CO[C@@H]2C", "values": [
      {"measurement": "inhibition", "setting": "[1]", "result": 49.2, "unit": "%"},
      {"measurement": "inhibition", "setting": "[2]", "result": 17, "unit": "%"}
    ]},
    {"smiles": "C/C=C1/C[N@@+]2(C)CC[C@@]34c5ccccc5N[C@]32C(=O)[C@@H]2[C@H](C)OC[C@@]4(C(=O)[O-])[C@H]12", "values": [
      {"measurement": "inhibition", "setting": "[1]", "result": 16.5, "unit": "%"},
      {"measurement": "inhibition", "setting": "[2]", "result": 5.1, "unit": "%"}
    ]},
    {"smiles": "C/C=C1/C[N@@+]2(C)CC[C@@]34c5ccccc5N[C@]32C(=O)[C@@H]2COC[C@@]4(C(=O)[O-])[C@H]12", "values": [
      {"measurement": "inhibition", "setting": "[1]", "result": 47.7, "unit": "%"},
      {"measurement": "inhibition", "setting": "[2]", "result": 49.2, "unit": "%"}
    ]},
    {"smiles": "C/C=C1/C[N@@+]2(C)CC[C@@]34c5ccccc5N[C@]32C(=O)[C@]2(C)OC[C@@]4(C(=O)[O-])[C@H]12", "values": [
      {"measurement": "inhibition", "setting": "[1]", "result": 4.5, "unit": "%"},
      {"measurement": "inhibition", "setting": "[2]", "result": 5.5, "unit": "%"}
    ]}
  ]
}
